Our source for the IC50 values is patent US20220098203A1 (priority 2018, published 2022).

The target of the first experiment is T1, MAT2A homodimer (Homo sapiens, UniProt P31153).
T1 construct: inferred from the Ni sepharose purification and imidazole elution; made in house; host or cells: SF9 insect cells, recombinant baculovirus (Bac to Bac, pFASTBAC1)
T1 sequence (P31153 whole entry): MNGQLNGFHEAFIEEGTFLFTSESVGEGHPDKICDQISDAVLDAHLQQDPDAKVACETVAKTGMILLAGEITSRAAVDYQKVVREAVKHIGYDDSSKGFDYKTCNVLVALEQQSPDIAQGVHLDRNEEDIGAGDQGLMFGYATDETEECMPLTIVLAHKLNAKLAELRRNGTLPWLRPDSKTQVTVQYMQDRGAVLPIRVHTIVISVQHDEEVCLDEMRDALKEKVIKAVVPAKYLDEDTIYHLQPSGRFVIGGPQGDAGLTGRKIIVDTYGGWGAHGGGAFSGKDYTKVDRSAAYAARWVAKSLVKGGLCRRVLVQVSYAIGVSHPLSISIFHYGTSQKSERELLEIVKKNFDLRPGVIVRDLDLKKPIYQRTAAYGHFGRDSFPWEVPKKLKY
Description: MAT2A biochemical assay (liberated phosphate, PiColorLock Gold). The note with it: Table 5a; MAT2A biochemical assay; read-out: Enzyme Inhibition. The protocol: Mat2A protein was expressed by recombinant baculovirus in SF9 infected cells using the Bac to Bac system cloned into the pFASTBAC1 vector (Invitrogen, Carlsbad, Calif.). Recombinant MAT2A was isolated from the cell lysate of 150 g of infected cells using HP Ni sepharose column chromatography. Recombinant MAT2A homodimer was eluted with 250 and 500 mM imidazole, and fractions containing MAT2A were identified by sodium dodecyl sulfate polyacrylamide gel electrophoresis and pooled.
Test compound was prepared in 100% dimethyl sulfoxide (DMSO) at 50× the desired final concentration. A 1 μL volume of compound dilution was added to 40 μL of enzyme dilution and the mixture was allowed to equilibrate for 60 minutes at 25° C. The enzymatic assay was initiated by the addition of 10 μL of substrate mix (500 μM ATP, pH 7.0, 400 μM L-methionine in 1× assay buffer), and the mixture was incubated for a further 60 minutes at 25° C. The reaction was halted and the liberated phosphate released by the enzyme in stoichiometric amounts by the production of S-adenosyl methionine (SAM) was measured using the PiColorLock Gold kit (Innova Biosciences, UK). Absolute product amounts were determined by comparison to a standard curve of potassium phosphate buffer, pH 8.0.
For the compound `CCOc1ccc2c(n1)N(c1ccc(OC(F)F)cc1)C(=O)N(c1ccnc(OC)c1)C2` [Example 111, 1-(4-(difluoromethoxy)phenyl)-7-ethoxy-3-(2-methoxypyridin-4-yl)-3,4-dihydropyrido[2,3-d]pyrimidin-2(1H)-one], the IC50 was less than 0.1 µM.

Regarding `CCOc1ccc2c(n1)N(c1ccc(OC)cc1)C(=O)N(c1ccc(C#N)cc1)C2` [Example 116, 4-(7-ethoxy-1-(4-methoxyphenyl)-2-oxo-1,2-dihydropyrido[2,3-d]pyrimidin-3(4H)-yl)benzonitrile], the IC50 was in the range of 1 to 10 µM.

As for `CCOc1ccc2c(n1)N(c1ccc(OC)cc1)C(=O)N(c1ccc(F)cc1)C2` [Example 117, 7-ethoxy-3-(4-fluorophenyl)-1-(4-methoxyphenyl)-3,4-dihydropyrido[2,3-d]pyrimidin-2(1H)-one], the IC50 was in the range of 0.1 to 1 µM.

In the case of `CCOc1ccc2c(n1)N(c1ccc(OC)cc1)C(=O)N(c1ccc(NC)cc1)C2` [Example 121, 7-ethoxy-1-(4-methoxyphenyl)-3-(4-(methylamino)phenyl)-3,4-dihydropyrido[2,3-d]pyrimidin-2(1H)-one], the IC50 fell in the range of 1 to 10 µM.

Regarding `CCOc1ccc2c(n1)N(c1ccc(OC)cc1)C(=O)N(c1ccc(C(=O)NC)cc1)C2` [Example 126, 4-(7-ethoxy-1-(4-methoxyphenyl)-2-oxo-1,2-dihydropyrido[2,3-d]pyrimidin-3(4H)-yl)-N-methylbenzamide], the IC50 lay in the range of 0.1 to 1 µM.

As for `CCOc1ccc2c(n1)N(c1ccc(OC)cc1)C(=O)N(c1cncs1)C2` [Example 127, ethoxy-1-(4-methoxyphenyl)-3-(thiazol-5-yl)-3,4-dihydropyrido[2,3-d]pyrimidin-2(1H)-one], the IC50 fell in the range of 0.1 to 1 µM.

With `CCOc1ccc2c(n1)N(c1cnc(C(F)(F)F)nc1)C(=O)N(c1ccc3nn(C)cc3c1)C2` [Example 148, 7-ethoxy-3-(2-methyl-2H-indazol-5-yl)-1-(2-(trifluoromethyl)pyrimidin-5-yl)-3,4-dihydropyrido[2,3-d]pyrimidin-2(1H)-one], the IC50 lay in the range of 0.1 to 1 µM.

Regarding `CCOc1ccc2c(n1)N(c1ccc(C(F)(F)F)nc1)C(=O)N(c1ccc3nn(C)cc3c1)C2` [Example 150], the IC50 is less than 0.1 µM.

For the compound `CCOc1ccc2c(n1)N(c1ccc(C)nc1)C(=O)N(c1ccc3nn(C)cc3c1)C2` [Example 151, 7-ethoxy-3-(2-methyl-2H-indazol-5-yl)-1-(6-methylpyridin-3-yl)-3,4-dihydropyrido[2,3-d]pyrimidin-2(1H)-one], the IC50 lay within 0.1 to 1 µM.

Consider `COc1ccc(N2C(=O)N(c3ccc4nn(C)cc4c3)Cc3ccc(N4CCOCC4)nc32)cc1` [Example 157, 1-(4-methoxyphenyl)-3-(2-methyl-2H-indazol-5-yl)-7-morpholino-3,4-dihydropyrido[2,3-d]pyrimidin-2(1H)-one], for which the IC50 was 0.1 to 1 µM.

Regarding `COc1ccc(N2C(=O)N(c3ccc4nn(C)cc4c3)Cc3ccc(N4CCCC4)nc32)cc1` [Example 158, 1-(4-methoxyphenyl)-3-(2-methyl-2H-indazol-5-yl)-7-(pyrrolidin-1-yl)-3,4-dihydropyrido[2,3-d]pyrimidin-2(1H)-one], the IC50 lay within 0.1 to 1 µM.

Consider `CCN(CC)c1ccc2c(n1)N(c1ccc(OC)cc1)C(=O)N(c1ccc3nn(C)cc3c1)C2` [Example 159, 7-(diethylamino)-1-(4-methoxyphenyl)-3-(2-methyl-2H-indazol-5-yl)-3,4-dihydropyrido[2,3-d]pyrimidin-2(1H)-one], for which the IC50 lay within 1 to 10 µM.

For `COc1ccc(N2C(=O)N(c3ccc4nn(C)cc4c3)Cc3ccc(N(C)C)nc32)cc1` [Example 160, 7-(dimethylamino)-1-(4-methoxyphenyl)-3-(2-methyl-2H-indazol-5-yl)-3,4-dihydropyrido[2,3-d]pyrimidin-2(1H)-one], the IC50 was 0.1 to 1 µM.

For the compound `[2H]C([2H])([2H])Oc1ccc(N2C(=O)N(c3ccc4nn(C)cc4c3)Cc3ccc(OCCC(F)(F)F)nc32)cc1` [Example 166, 1-(4-methoxy-d3-phenyl)-3-(2-methyl-2H-indazol-5-yl)-7-(3,3,3-trifluoropropoxy)-3,4-dihydropyrido[2,3-d]pyrimidin-2(1H)-one], the IC50 fell in the range of 0.1 to 1 µM.

As to `Cn1cc2cc(N3Cc4ccc(OCC(F)F)nc4N(c4ccc5nccn5c4)C3=O)ccc2n1` [Example 171, 7-(2,2-difluoroethoxy)-1-(imidazo[1,2-a]pyridin-6-yl)-3-(2-methyl-2H-indazol-5-yl)-3,4-dihydropyrido[2,3-d]pyrimidin-2(1H)-one], the IC50 was less than 0.1 µM.

For the compound `Cn1cc2cc(N3Cc4ccc(OCC(F)F)nc4N(c4ccc5ncn(C)c5c4)C3=O)ccc2n1` [Example 173, 7-(2,2-difluoroethoxy)-1-(1-methyl-1H-benzo[d]imidazol-6-yl)-3-(2-methyl-2H-indazol-5-yl)-3,4-dihydropyrido[2,3-d]pyrimidin-2(1H)-one], the IC50 is 0.1 to 1 µM.

On to `Cn1cc2cc(N3Cc4ccc(OCC(F)F)nc4N(c4ccc5ncnn5c4)C3=O)ccc2n1` [Example 174, 1-([1,2,4]triazolo[1,5-a]pyridin-6-yl)-7-(2,2-difluoroethoxy)-3-(2-methyl-2H-indazol-5-yl)-3,4-dihydropyrido[2,3-d]pyrimidin-2(1H)-one], for which the IC50 fell in the range of 0.1 to 1 µM.

For `COc1ccc(N2Cc3cnc(NCC(F)(F)F)nc3N(c3ccc(S(C)(=O)=O)cc3)C2=O)cc1` [Example 189, 3-(4-methoxyphenyl)-1-(4-(methylsulfonyl)phenyl)-7-((2,2,2-trifluoroethyl)amino)-3,4-dihydropyrimido[4,5-d]pyrimidin-2(1H)-one], the IC50 is 0.1 to 1 µM.

Turning to `Cn1cc2cc(N3Cc4cnc(OCC(F)(F)F)nc4N(c4ccc(-c5nc[nH]n5)cc4)C3=O)ccc2n1` [Example 191, 1-(4-(1H-1,2,4-triazol-3-yl)phenyl)-3-(2-methyl-2H-indazol-5-yl)-7-(2,2,2-trifluoroethoxy)-3,4-dihydropyrimido[4,5-d]pyrimidin-2(1H)-one], the IC50 was less than 0.1 µM.

Regarding `COc1ccc(N2Cc3cnc(NCC(F)(F)F)nc3N(c3ccc(-c4cn[nH]n4)cc3)C2=O)cc1` [Example 192, 1-(4-(2H-1,2,3-triazol-4-yl)phenyl)-3-(4-methoxyphenyl)-7-((2,2,2-trifluoroethyl)amino)-3,4-dihydropyrimido[4,5-d]pyrimidin-2(1H)-one], the IC50 lay in the range of 0.1 to 1 µM.

The same experiment, now with this note: Table 5b; Additional Examples; read-out: Enzyme Inhibition.
On to `COc1ccc(-n2c(=O)c3cnc(SC)nc3n(-c3ccc(OCc4ccccc4)cc3)c2=O)cc1`, for which the IC50 is more than 10 µM.

With `COc1ccc(N2Cc3cnc(NCC(F)(F)F)nc3N(c3ccc(C(=O)N(C)C)cc3)C2=O)cc1`, the IC50 lay in the range of 0.1 to 1 µM.

Take `COc1ccc(N2Cc3cnc(NCC(F)(F)F)nc3N(c3ccc(C(C)(C)CO)cc3)C2=O)cc1`: the IC50 lay in the range of 0.1 to 1 µM.

For the compound `COc1ccc(N2C(=O)N(c3ccc4nn(C)cc4c3)Cc3cnc(NC4CCCC4)nc32)cc1`, the IC50 was 0.1 to 1 µM.

For `COc1ccc(N2Cc3cnc(NCC(F)(F)F)nc3N(c3ccc(CC(C)O)cc3)C2=O)cc1` (centres unmarked), the IC50 is 0.1 to 1 µM.

Regarding `CCOc1ccc2c(n1)N(c1ccc(OC)cc1)C(=O)N(c1ccc(Cl)cc1)C2`, the IC50 is more than 10 µM.

In the case of `COc1ccc(N2Cc3cnc(NCC(F)(F)F)nc3N(c3ccc(C(=O)O)cc3)C2=O)cc1`, the IC50 was more than 10 µM.

With `COc1ccc(-n2c(=O)c3cnc(NCC(F)(F)F)nc3n(-c3ccc(OCc4ccccc4)cc3)c2=O)cc1`, the IC50 was more than 10 µM.

For the compound `COc1ccc(N2Cc3cnc(NCC4CC4)nc3N(c3ccccc3)C2=O)cc1`, the IC50 is more than 10 µM.

As for `COc1ccc(N2Cc3cnc(NCC(F)(F)F)nc3N(c3ccc(-c4ccsc4)cc3)C2=O)cc1`, the IC50 was more than 10 µM.

Turning to `COc1ccc(N2Cc3cnc(NCC(F)(F)F)nc3N(c3cccc(Br)c3)C2=O)cc1`, the IC50 was more than 10 µM.

For the compound `COc1ccc(N2Cc3cnc(NCC(F)(F)F)nc3N(c3ncc(OC)cn3)C2=O)cc1`, the IC50 is more than 10 µM.

For the compound `COc1ccc(-n2c(=O)c3cnc(S(C)(=O)=O)nc3n(-c3ccc(OCc4ccccc4)cc3)c2=O)cc1`, the IC50 is more than 10 µM.

On to `COc1ccc(N2Cc3cnc(NCC(F)(F)F)nc3N(c3ccc(Cl)c(C(F)(F)F)c3)C2=O)cc1`, for which the IC50 is more than 10 µM.

Turning to `COc1ccc(N2Cc3cnc(NCC(F)(F)F)nc3N(c3ccc(-c4ccccc4)cc3)C2=O)cc1`, the IC50 was more than 10 µM.

For the compound `COc1ccc(N2C(=O)N(c3ccc4nn(C)cc4c3)Cc3ccc(Nc4ccccc4)nc32)cc1`, the IC50 was more than 10 µM.

Take `COc1ccc(N2Cc3cnc(NCC(F)(F)F)nc3N(c3ccnnc3)C2=O)cc1`: the IC50 is more than 10 µM.

As to `COc1ccc(N2C(=O)N(c3ccc4nn(C)cc4c3)Cc3ccc(N4CCC4)nc32)cc1`, the IC50 was more than 10 µM.

For the compound `Cn1cc2cc(N3Cc4ccc(OCC(F)F)nc4NC3=O)ccc2n1`, the IC50 was more than 10 µM.

For the compound `COc1ccc(N2Cc3cnc(SC)nc3N(c3ccc(Cl)c(C(F)(F)F)c3)C2=O)cc1`, the IC50 is more than 10 µM.

`COc1ccc(N2Cc3cnc(NCC(F)(F)F)nc3N(C3CCNC(=O)C3)C2=O)cc1` (centres unmarked): the IC50 is more than 10 µM.

Regarding `COc1ccc(N2Cc3cnc(SC)nc3N(c3cccc(Br)c3)C2=O)cc1`, the IC50 is more than 10 µM.

As for `COc1ccc(N2Cc3cnc(NCC(F)(F)F)nc3N(S(C)(=O)=O)C2=O)cc1`, the IC50 was more than 10 µM.

With `COc1ccc(N2Cc3cnc(-n4ccnc4)nc3N(c3ccc(O)cc3)C2=O)cc1`, the IC50 was more than 10 µM.
